Test results from patent US10562908B2, “Ortho substituted phenylpyrazolo- and phenylpyrrolo-pyridazine derivatives having multimodal activity against pain” (priority 2016, dated 2020).
Read-outs that look alike come from different tables or passages of the source.

How the values were obtained:
[1] = target: Human α2δ-1 subunit of Cav2.2 calcium channel (Homo sapiens, UniProt P54289); assay: Human α2δ-1 subunit of Cav2.2 calcium channel assay ([3H]-Gabapentin); type: binding
Method in brief: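 α2δ-1-enriched membranes (2.5 μg) were incubated with 15 nM [3H]-gabapentin in 10 mM Hepes-KOH pH 7.4 for 60 min at 27 °C. Non-specific binding was defined with 10 μM pregabalin. Compounds were tested at five concentrations, with filtration and scintillation counting.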

human μ-opioid receptor = target: T1, human μ-opioid receptor (Homo sapiens, UniProt P35372); assay: Human μ-opioid receptor radioligand assay ([3H]-DAMGO); type: binding
T1 construct: expressed in transfected cells; host or cells: CHO-K1
Method in brief: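 Transfected CHO-K1 membranes (20 μg) incubated with 1 nM [3H]-DAMGO in 50 mM Tris-HCl, 5 mM MgCl2, pH 7.4, 60 min at 27 °C; non-specific binding with 10 μM naloxone. Test compound at five concentrations; bound radioactivity counted after filtration by scintillation.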

[2] = human α2δ-1 enriched membranes, 15 nM [3H]-Gabapentin, read-out: Binding α2δ-1 (Ki)
[3] = transfected CHO-K1 cell membranes, 1 nM [3H]-DAMGO, read-out: Binding μ (Ki)

T1 sequence (P35372 whole entry): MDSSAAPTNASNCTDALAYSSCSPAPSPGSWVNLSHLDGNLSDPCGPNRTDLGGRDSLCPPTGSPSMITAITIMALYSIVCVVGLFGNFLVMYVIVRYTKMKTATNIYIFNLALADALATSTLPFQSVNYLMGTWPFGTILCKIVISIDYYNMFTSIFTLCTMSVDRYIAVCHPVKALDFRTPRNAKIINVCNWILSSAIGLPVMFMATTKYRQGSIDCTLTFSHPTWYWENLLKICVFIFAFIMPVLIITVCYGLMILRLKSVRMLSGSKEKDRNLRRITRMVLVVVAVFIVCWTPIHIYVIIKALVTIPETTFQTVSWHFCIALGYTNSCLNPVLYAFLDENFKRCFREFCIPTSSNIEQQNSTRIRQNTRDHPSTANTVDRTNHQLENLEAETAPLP
Sequence of Human α2δ-1 subunit of Cav2.2 calcium channel (P54289 25-1103): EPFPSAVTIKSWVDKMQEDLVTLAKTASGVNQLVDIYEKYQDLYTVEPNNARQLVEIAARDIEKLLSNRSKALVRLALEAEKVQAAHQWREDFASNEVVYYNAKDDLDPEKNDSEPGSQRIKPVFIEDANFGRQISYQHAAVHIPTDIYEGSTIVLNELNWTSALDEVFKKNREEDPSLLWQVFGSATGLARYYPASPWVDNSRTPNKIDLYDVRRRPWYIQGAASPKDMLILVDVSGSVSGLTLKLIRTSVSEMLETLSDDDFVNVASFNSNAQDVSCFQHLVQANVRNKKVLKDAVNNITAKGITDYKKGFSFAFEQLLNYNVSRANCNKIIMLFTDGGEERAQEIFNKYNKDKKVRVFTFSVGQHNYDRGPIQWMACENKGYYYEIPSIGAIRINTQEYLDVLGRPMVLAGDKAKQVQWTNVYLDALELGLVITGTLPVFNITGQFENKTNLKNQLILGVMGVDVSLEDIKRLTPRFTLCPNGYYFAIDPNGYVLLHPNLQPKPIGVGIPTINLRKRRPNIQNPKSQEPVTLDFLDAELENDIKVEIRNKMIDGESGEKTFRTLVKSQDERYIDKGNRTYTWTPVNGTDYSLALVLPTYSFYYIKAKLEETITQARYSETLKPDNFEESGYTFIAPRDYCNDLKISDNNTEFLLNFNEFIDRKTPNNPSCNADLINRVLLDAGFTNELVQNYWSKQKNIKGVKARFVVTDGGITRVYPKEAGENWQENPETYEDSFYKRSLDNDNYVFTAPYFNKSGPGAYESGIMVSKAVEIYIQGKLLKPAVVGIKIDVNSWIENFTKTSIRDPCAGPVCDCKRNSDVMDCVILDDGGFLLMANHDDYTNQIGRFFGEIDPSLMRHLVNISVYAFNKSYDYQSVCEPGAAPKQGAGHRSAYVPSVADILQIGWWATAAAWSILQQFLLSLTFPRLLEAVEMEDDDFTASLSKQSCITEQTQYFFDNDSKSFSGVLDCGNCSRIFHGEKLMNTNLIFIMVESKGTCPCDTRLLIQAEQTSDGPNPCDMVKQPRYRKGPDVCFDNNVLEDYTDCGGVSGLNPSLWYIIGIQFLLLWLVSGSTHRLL

Ki [1, 2] [nM]	Ki (human μ-opioid receptor; [3]) [nM]	Compound	Ki [1] [nM]	Ki (human μ-opioid receptor) [nM]
500 to 5000	> 500	CNCCC(Cc1ccccc1)Oc1ccccc1-n1nc2c(N(C)C)nnc(C)c2c1C (centres unmarked) [Example 77, N,N,3,4-tetramethyl-2-(2-((4-(methylamino)-1-phenylbutan-2-yl)oxy)phenyl)-2H-pyrazolo[3,4-d]pyridazin-7-amine]	–	–
–	–	CNCCC(Oc1ccccc1-n1nc2c(N(C)C)nnc(C)c2c1C)c1cccs1 (centres unmarked) [Example 78, N,N,3,4-Tetramethyl-2-(2-(3-(methylamino)-1-(thiophen-2-yl)propoxy)phenyl)-2H-pyrazolo[3,4-d]pyridazin-7-amine]	500 to 5000	100 to 500
–	–	CNCCC(Oc1ccccc1-n1nc2c(N(C)C)nnc(C)c2c1C)c1cccc(O)c1 (centres unmarked) [Example 79, 3-(1-(2-(7-(Dimethylamino)-3,4-dimethyl-2H-pyrazolo[3,4-d]pyridazin-2-yl)phenoxy)-3-(methylamino)propyl)phenol]	500 to 5000	100 to 500
500 to 5000	> 500	CNCCC(Oc1cc(N2CCCC2=O)ccc1-n1nc2c(N(C)C)nnc(C)c2c1C)c1ccccc1 (centres unmarked) [Example 80, 1-(4-(7-(Dimethylamino)-3,4-dimethyl-2H-pyrazolo[3,4-d]pyridazin-2-yl)-3-(3-(methylamino)-1-phenylpropoxy)phenyl)pyrrolidin-2-one]	–	–
> 5000	> 500	CNCCC(Oc1ccc(N2CCCC2=O)cc1-n1nc2c(N(C)C)nnc(C)c2c1C)c1ccccc1 (centres unmarked) [Example 81, 1-(3-(7-(dimethylamino)-3,4-dimethyl-2H-pyrazolo[3,4-d]pyridazin-2-yl)-4-(3-(methylamino)-1-phenylpropoxy)phenyl)pyrrolidin-2-one]	–	–
500 to 5000	> 500	CNCCC(Oc1cc(NC(C)=O)ccc1-n1nc2c(N(C)C)nnc(C)c2c1C)c1ccccc1 (centres unmarked) [Example 82, N-(4-(7-(dimethylamino)-3,4-dimethyl-2H-pyrazolo[3,4-d]pyridazin-2-yl)-3-(3-(methylamino)-1-phenylpropoxy)phenyl)acetamide]	–	–
500 to 5000	> 500	CNCCC(Oc1ccc(NC(C)=O)cc1-n1nc2c(N(C)C)nnc(C)c2c1C)c1ccccc1 (centres unmarked) [Example 83, N-(3-(7-(dimethylamino)-3,4-dimethyl-2H-pyrazolo[3,4-d]pyridazin-2-yl)-4-(3-(methylamino)-1-phenylpropoxy)phenyl)acetamide]	–	–
500 to 5000	> 500	CNCCC(Oc1ccccc1-n1nc2c(N(C)C)nnc(C)c2c1C)c1cccc(NC(C)=O)c1 (centres unmarked) [Example 84, N-(3-(1-(2-(7-(dimethylamino)-3,4-dimethyl-2H-pyrazolo[3,4-d]pyridazin-2-yl)phenoxy)-3-(methylamino)propyl)phenyl)acetamide]	–	–
> 5000	> 500	CNCCC(Oc1cc(C#N)ccc1-n1nc2c(N(C)C)nnc(C)c2c1C)c1ccccc1 (centres unmarked) [Example 85, 4-(7-(Dimethylamino)-3,4-dimethyl-2H-pyrazolo[3,4-d]pyridazin-2-yl)-3-(3-(methylamino)-1-phenylpropoxy)benzonitrile]	–	–
> 5000	> 500	CNCCC(Oc1ccc(C#N)cc1-n1nc2c(N(C)C)nnc(C)c2c1C)c1ccccc1 (centres unmarked) [Example 86, 3-(7-(dimethylamino)-3,4-dimethyl-2H-pyrazolo[3,4-d]pyridazin-2-yl)-4-(3-(methylamino)-1-phenylpropoxy)benzonitrile]	–	–
–	–	CCOc1ccc(-n2nc3c(N(C)C)nnc(C)c3c2C)c(OC(CCNC)c2ccccc2)c1 (centres unmarked) [Example 87, 2-(4-Ethoxy-2-(3-(methylamino)-1-phenylpropoxy)phenyl)-N,N,3,4-tetramethyl-2H-pyrazolo[3,4-d]pyridazin-7-amine]	< 500	> 500
500 to 5000	> 500	CNCCC(Oc1ccc(OC)cc1-n1nc2c(N(C)C)nnc(C)c2c1C)c1ccccc1 (centres unmarked) [Example 88, 2-(5-methoxy-2-(3-(methylamino)-1-phenylpropoxy)phenyl)-N,N,3,4-tetramethyl-2H-pyrazolo[3,4-d]pyridazin-7-amine]	–	–
500 to 5000	> 500	CCOc1ccc(OC(CCNC)c2ccccc2)c(-n2nc3c(N(C)C)nnc(C)c3c2C)c1 (centres unmarked) [Example 89, 2-(5-ethoxy-2-(3-(methylamino)-1-phenylpropoxy)phenyl)-N,N,3,4-tetramethyl-2H-pyrazolo[3,4-d]pyridazin-7-amine]	–	–
500 to 5000	> 500	CCOc1cccc(C(CCNC)Oc2ccccc2-n2nc3c(N(C)C)nnc(C)c3c2C)c1 (centres unmarked) [Example 90, 2-(2-(1-(3-ethoxyphenyl)-3-(methylamino)propoxy)phenyl)-N,N,3,4-tetramethyl-2H-pyrazolo[3,4-d]pyridazin-7-amine]	–	–
500 to 5000	> 500	CNCCC(Oc1ccccc1-n1nc2c(N(C)C)nnc(C)c2c1C)c1cccc(C(N)=O)c1 (centres unmarked) [Example 91, 3-(1-(2-(7-(Dimethylamino)-3,4-dimethyl-2H-pyrazolo[3,4-d]pyridazin-2-yl)phenoxy)-3-(methylamino)propyl)benzamide]	–	–
500 to 5000	> 500	CNCCC(Oc1ccccc1-n1nc2c(N(C)C)nnc(C)c2c1C)c1ccc(C(N)=O)cc1 (centres unmarked) [Example 92, 4-(1-(2-(7-(dimethylamino)-3,4-dimethyl-2H-pyrazolo[3,4-d]pyridazin-2-yl)phenoxy)-3-(methylamino)propyl)benzamide]	–	–
> 5000	> 500	CNCCC(Oc1ccc(C(N)=O)cc1-n1nc2c(N(C)C)nnc(C)c2c1C)c1ccccc1 (centres unmarked) [Example 93, 3-(7-(dimethylamino)-3,4-dimethyl-2H-pyrazolo[3,4-d]pyridazin-2-yl)-4-(3-(methylamino)-1-phenylpropoxy)benzamide]	–	–
> 5000	> 500	CNCCC(Oc1cc(C(N)=O)ccc1-n1nc2c(N(C)C)nnc(C)c2c1C)c1ccccc1 (centres unmarked) [Example 94, 4-(7-(dimethylamino)-3,4-dimethyl-2H-pyrazolo[3,4-d]pyridazin-2-yl)-3-(3-(methylamino)-1-phenylpropoxy)benzamide]	–	–
500 to 5000	> 500	CNCCC(Oc1cc(C(=O)N(C)C)ccc1-n1nc2c(N(C)C)nnc(C)c2c1C)c1ccccc1 (centres unmarked) [Example 95]	–	–
> 5000	> 500	CNCCC(Oc1ccc(C(=O)N(C)C)cc1-n1nc2c(N(C)C)nnc(C)c2c1C)c1ccccc1 (centres unmarked) [Example 96, 3-(7-(Dimethylamino)-3,4-dimethyl-2H-pyrazolo[3,4-d]pyridazin-2-yl)-N,N-dimethyl-4-(3-(methylamino)-1-phenylpropoxy)benzamide]	–	–
500 to 5000	> 500	CNCCC(Oc1ccc(O)cc1-n1nc2c(N(C)C)nnc(C)c2c1C)c1ccccc1 (centres unmarked) [Example 97, 3-(7-(Dimethylamino)-3,4-dimethyl-2H-pyrazolo[3,4-d]pyridazin-2-yl)-4-(3-(methylamino)-1-phenylpropoxy)phenol]	–	–
500 to 5000	> 500	CNCCC(Oc1cc(O)ccc1-n1nc2c(N(C)C)nnc(C)c2c1C)c1ccccc1 (centres unmarked) [Example 98, 4-(7-(dimethylamino)-3,4-dimethyl-2H-pyrazolo[3,4-d]pyridazin-2-yl)-3-(3-(methylamino)-1-phenylpropoxy)phenol]	–	–
–	–	CNCC[C@H](Oc1ccccc1-n1nc2c(N(C)C)nnc(C)c2c1C)c1ccccc1 [Example 99, (S)-N,N,3,4-Tetramethyl-2-(2-(3-(methylamino)-1-phenylpropoxy)phenyl)-2H-pyrazolo[3,4-d]pyridazin-7-amine]	500 to 5000	100 to 500
–	–	CNCC[C@@H](Oc1ccccc1-n1nc2c(N(C)C)nnc(C)c2c1C)c1ccccc1 [Example 100, (R)-N,N,3,4-tetramethyl-2-(2-(3-(methylamino)-1-phenylpropoxy)phenyl)-2H-pyrazolo[3,4-d]pyridazin-7-amine]	500 to 5000	> 500
–	–	CCNCC[C@@H](Oc1ccccc1-n1nc2c(N(C)C)nnc(C)c2c1C)c1ccccc1 [Example 101, (R)-2-(2-(3-(Ethylamino)-1-phenylpropoxy)phenyl)-N,N,3,4-tetramethyl-2H-pyrazolo[3,4-d]pyridazin-7-amine]	500 to 5000	100 to 500
–	–	CCNCC[C@H](Oc1ccccc1-n1nc2c(N(C)C)nnc(C)c2c1C)c1ccccc1 [Example 102, (S)-2-(2-(3-(ethylamino)-1-phenylpropoxy)phenyl)-N,N,3,4-tetramethyl-2H-pyrazolo[3,4-d]pyridazin-7-amine]	500 to 5000	> 500
–	–	CNCC[C@H](Oc1ccccc1-n1nc2c(N(C)C)nnc(C)c2c1C)c1cccc(F)c1 [Example 103, (S)-2-(2-(1-(3-Fluorophenyl)-3-(methylamino)propoxy)phenyl)-N,N,3,4-tetramethyl-2H-pyrazolo[3,4-d]pyridazin-7-amine]	< 500	> 500
–	–	CNCC[C@@H](Oc1ccccc1-n1nc2c(N(C)C)nnc(C)c2c1C)c1cccc(F)c1 [Example 104, (R)-2-(2-(1-(3-fluorophenyl)-3-(methylamino)propoxy)phenyl)-N,N,3,4-tetramethyl-2H-pyrazolo[3,4-d]pyridazin-7-amine]	500 to 5000	100 to 500
